Tests used:
Type in all cases: binding
[1] = tested on: human monoclonal antibody CR57
[2] = tested on: human monoclonal antibody CRJB
[3] = tested on: human monoclonal antibody CR57; remark: listed apart in the source
[4] = tested on: human monoclonal antibody CRJA
[5] = tested on: human monoclonal antibody CRJB; remark: listed apart in the source
[6] = tested on: human monoclonal antibody CR57; remark: listed apart in the source
[7] = tested on: human monoclonal antibody CRJA; remark: listed apart in the source

| Sequence | binding of CR57 to 12-, 10- and 8-mer peptides [1] | Binding of CRJB to linear peptide (PEPSCAN-ELISA signal) [2] | Binding of CR57 to linear peptide (PEPSCAN-ELISA signal) [3] | Binding of CRJA to linear peptide (PEPSCAN-ELISA signal) [4] | also measured |
| --- | --- | --- | --- | --- | --- |
| LKLCGVLGLR | bound |  |  |  |  |
| KLCGVLGL | bound |  |  |  |  |
| KLCGVLGLRLMD | bound |  |  |  |  |
| KGACKLKLCGVL | bound |  |  |  |  |
| LKLCGVLG | bound |  |  |  |  |
| KLKLCGVL | bound |  |  |  |  |
| GACKLKLCGVLG | bound |  |  |  |  |
| ACKLKLCGVLGL | bound |  |  |  |  |
| KLKLCGVLGL | bound |  |  |  |  |
| CKLKLCGVLG | bound |  |  |  |  |
| CKLKLCGVLGLR | bound |  |  |  |  |
| ACKLKLCGVL | bound |  |  |  |  |
| SPIDIHHLSCPNNLV |  | 85 | 74 | 100 | Binding of CRJB (10 μg/ml) to looped/cyclic peptide (PEPSCAN-ELISA signal) [5]: 72; Binding of CR57 (10 μg/ml) to looped/cyclic peptide (PEPSCAN-ELISA signal) [6]: 94; Binding of CRJA (10 μg/ml) to looped/cyclic peptide (PEPSCAN-ELISA signal) [7]: 92 |
| KGCLRVGGRCHPHVN |  | 130 | 68 | 108 | Binding of CRJB (10 μg/ml) to looped/cyclic peptide (PEPSCAN-ELISA) [5]: 91; Binding of CR57 (10 μg/ml) to looped/cyclic peptide (PEPSCAN-ELISA) [6]: 65; Binding of CRJA (10 μg/ml) to looped/cyclic peptide (PEPSCAN-ELISA) [7]: 102 |
| NEILPSKGCLRVGGR |  | 130 | 104 | 97 | Binding of CRJB (10 μg/ml) to looped/cyclic peptide (PEPSCAN-ELISA) [5]: 111; Binding of CR57 (10 μg/ml) to looped/cyclic peptide (PEPSCAN-ELISA) [6]: 104; Binding of CRJA (10 μg/ml) to looped/cyclic peptide (PEPSCAN-ELISA) [7]: 105 |
| IHHLSCPNNLVVEDE |  | 85 | 37 | 79 | Binding of CRJB (10 μg/ml) to looped/cyclic peptide (PEPSCAN-ELISA signal) [5]: 71; Binding of CR57 (10 μg/ml) to looped/cyclic peptide (PEPSCAN-ELISA signal) [6]: 46; Binding of CRJA (10 μg/ml) to looped/cyclic peptide (PEPSCAN-ELISA signal) [7]: 76 |
| KSVRTWNEILPSKGC |  | 125 | 115 | 90 | Binding of CRJB (10 μg/ml) to looped/cyclic peptide (PEPSCAN-ELISA) [5]: 104; Binding of CR57 (10 μg/ml) to looped/cyclic peptide (PEPSCAN-ELISA) [6]: 148; Binding of CRJA (10 μg/ml) to looped/cyclic peptide (PEPSCAN-ELISA) [7]: 110 |
| RSDEIEHLVVEELVR |  | 138 | 100 | 93 | Binding of CRJB (10 μg/ml) to looped/cyclic peptide (PEPSCAN-ELISA) [5]: 93; Binding of CR57 (10 μg/ml) to looped/cyclic peptide (PEPSCAN-ELISA) [6]: 136; Binding of CRJA (10 μg/ml) to looped/cyclic peptide (PEPSCAN-ELISA) [7]: 107 |
| LRLMDGTWVAMQTSN |  | 114 | 103 | 96 | Binding of CRJB (10 μg/ml) to looped/cyclic peptide (PEPSCAN-ELISA) [5]: 72; Binding of CR57 (10 μg/ml) to looped/cyclic peptide (PEPSCAN-ELISA) [6]: 98; Binding of CRJA (10 μg/ml) to looped/cyclic peptide (PEPSCAN-ELISA) [7]: 92 |
| NFVGYVTTTFKRKHF |  | 107 | 65 | 88 | Binding of CRJB (10 μg/ml) to looped/cyclic peptide (PEPSCAN-ELISA signal) [5]: 98; Binding of CR57 (10 μg/ml) to looped/cyclic peptide (PEPSCAN-ELISA signal) [6]: 92; Binding of CRJA (10 μg/ml) to looped/cyclic peptide (PEPSCAN-ELISA signal) [7]: 83 |
| PDQLVNLHDFRSDEI |  | 106 | 35 | 43 | Binding of CRJB (10 μg/ml) to looped/cyclic peptide (PEPSCAN-ELISA) [5]: 73; Binding of CR57 (10 μg/ml) to looped/cyclic peptide (PEPSCAN-ELISA) [6]: 70; Binding of CRJA (10 μg/ml) to looped/cyclic peptide (PEPSCAN-ELISA) [7]: 46 |
| PSGKCSGVAVSSTYC |  | 112 | 56 | 106 | Binding of CRJB (10 μg/ml) to looped/cyclic peptide (PEPSCAN-ELISA signal) [5]: 48; Binding of CR57 (10 μg/ml) to looped/cyclic peptide (PEPSCAN-ELISA signal) [6]: 58; Binding of CRJA (10 μg/ml) to looped/cyclic peptide (PEPSCAN-ELISA signal) [7]: 73 |
| SRGKRASKGSETCGF |  | 93 | 64 | 70 | Binding of CRJB (10 μg/ml) to looped/cyclic peptide (PEPSCAN-ELISA signal) [5]: 86; Binding of CR57 (10 μg/ml) to looped/cyclic peptide (PEPSCAN-ELISA signal) [6]: 96; Binding of CRJA (10 μg/ml) to looped/cyclic peptide (PEPSCAN-ELISA signal) [7]: 82 |
| TNHDYTIWMPENPRL |  | 129 | 69 | 91 | Binding of CRJB (10 μg/ml) to looped/cyclic peptide (PEPSCAN-ELISA signal) [5]: 58; Binding of CR57 (10 μg/ml) to looped/cyclic peptide (PEPSCAN-ELISA signal) [6]: 40; Binding of CRJA (10 μg/ml) to looped/cyclic peptide (PEPSCAN-ELISA signal) [7]: 72 |
| KLCGVLGLRLMDGTW |  | 132 | 3152 | 96 | binding of antibody CR57 to linear peptide (PEPSCAN OD) [3]: bound; strength of binding of CR57 (OD value compared with the other peptides / twice the average value) [3]: most prominent; Binding of CRJB (10 μg/ml) to looped/cyclic peptide (PEPSCAN-ELISA) [5]: 68; Binding of CR57 (10 μg/ml) to looped/cyclic peptide (PEPSCAN-ELISA) [6]: 120; Binding of CRJA (10 μg/ml) to looped/cyclic peptide (PEPSCAN-ELISA) [7]: 82 |
| VEELVRKREECLDAL |  | 111 | 58 | 84 | Binding of CRJB (10 μg/ml) to looped/cyclic peptide (PEPSCAN-ELISA) [5]: 27; Binding of CR57 (10 μg/ml) to looped/cyclic peptide (PEPSCAN-ELISA) [6]: 55; Binding of CRJA (10 μg/ml) to looped/cyclic peptide (PEPSCAN-ELISA) [7]: 69 |
| VVEDEGCTNLSGFSY |  | 107 | 73 | 63 | Binding of CRJB (10 μg/ml) to looped/cyclic peptide (PEPSCAN-ELISA signal) [5]: 66; Binding of CR57 (10 μg/ml) to looped/cyclic peptide (PEPSCAN-ELISA signal) [6]: 79; Binding of CRJA (10 μg/ml) to looped/cyclic peptide (PEPSCAN-ELISA signal) [7]: 68 |
| FSYMELKVGYILAIK |  | 112 | 89 | 120 | Binding of CRJB (10 μg/ml) to looped/cyclic peptide (PEPSCAN-ELISA signal) [5]: 72; Binding of CR57 (10 μg/ml) to looped/cyclic peptide (PEPSCAN-ELISA signal) [6]: 104; Binding of CRJA (10 μg/ml) to looped/cyclic peptide (PEPSCAN-ELISA signal) [7]: 96 |

— patent US20060263802A1 (priority 2003, published 2006)
